IC50, Ki and Activity data for seven compounds are collected here from ChEMBL document CHEMBL5154921, “Discovery and Characterization of the First Nonpeptide Antagonists for the Relaxin-3/RXFP3 System” (J Med Chem, 2022).

The source made the active and inactive calls. The calls are words filed in the database; no cut-off is given here.

Test [1] addresses T1, Relaxin-3 receptor 1 (Homo sapiens, UniProt Q9NSD7).
T1 sequence (Q9NSD7 whole entry): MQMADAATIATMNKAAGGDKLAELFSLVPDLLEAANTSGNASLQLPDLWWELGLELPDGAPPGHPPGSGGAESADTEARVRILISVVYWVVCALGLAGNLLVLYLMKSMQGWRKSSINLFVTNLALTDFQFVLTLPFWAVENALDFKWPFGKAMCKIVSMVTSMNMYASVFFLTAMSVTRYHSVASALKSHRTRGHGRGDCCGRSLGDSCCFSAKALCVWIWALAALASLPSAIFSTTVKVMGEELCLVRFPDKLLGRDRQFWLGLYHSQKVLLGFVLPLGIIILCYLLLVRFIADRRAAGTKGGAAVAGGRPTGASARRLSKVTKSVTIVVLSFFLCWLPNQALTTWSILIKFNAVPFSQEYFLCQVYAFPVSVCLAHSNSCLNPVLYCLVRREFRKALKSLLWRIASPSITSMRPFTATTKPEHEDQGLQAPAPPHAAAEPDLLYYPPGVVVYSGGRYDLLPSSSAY
Put plainly: Antagonist activity at human RXFP3 expressed in CHO-K1 cells assessed as forskolin-induced cAMP accumulation measured after 30 mins in presence of relaxin-3 by TR-FRET assay. The format is functional, cell-based. Background: Changes in cAMP serve as a functional read-out for many G protein-coupled receptors.

In test [2] the target is T1, Relaxin-3 receptor 1. Briefly: Antagonist activity at human RXFP3 expressed in CHO-K1 cells assessed as inhibition of relaxin-3 stimulated ERK1/2 phosphorylation preincubated for 15 mins followed by relaxin-3 addition for 5 mins. The format is functional, cell-based.
Test [3] deals with T1, Relaxin-3 receptor 1.
In test [4] the target is T1, Relaxin-3 receptor 1. Put plainly: Antagonist activity at human RXFP3 expressed in CHO-K1 cells assessed as [35S]GTPgammaS binding incubated for 1 hr by [35S]GTP-gammaS binding assay. It counts as functional, cell-based. Background: GTPγS is a poorly hydrolysed GTP analogue; its binding reports G protein activation.
In test [5] the target is Relaxin receptor 1 (Homo sapiens) (UniProt Q9HBX9). Briefly: Antagonist activity at human RXFP1 receptor expressed in CHO-K1 cells assessed as cAMP production at 10 to 30 uM in presence of relaxin-3 incubated for 30 mins by TR-FRET assay. The format is functional, cell-based. The note with it: filed as antagonist, dose 10-30 µM.
Sequence of Relaxin receptor 1 (Homo sapiens) (Q9HBX9 whole entry): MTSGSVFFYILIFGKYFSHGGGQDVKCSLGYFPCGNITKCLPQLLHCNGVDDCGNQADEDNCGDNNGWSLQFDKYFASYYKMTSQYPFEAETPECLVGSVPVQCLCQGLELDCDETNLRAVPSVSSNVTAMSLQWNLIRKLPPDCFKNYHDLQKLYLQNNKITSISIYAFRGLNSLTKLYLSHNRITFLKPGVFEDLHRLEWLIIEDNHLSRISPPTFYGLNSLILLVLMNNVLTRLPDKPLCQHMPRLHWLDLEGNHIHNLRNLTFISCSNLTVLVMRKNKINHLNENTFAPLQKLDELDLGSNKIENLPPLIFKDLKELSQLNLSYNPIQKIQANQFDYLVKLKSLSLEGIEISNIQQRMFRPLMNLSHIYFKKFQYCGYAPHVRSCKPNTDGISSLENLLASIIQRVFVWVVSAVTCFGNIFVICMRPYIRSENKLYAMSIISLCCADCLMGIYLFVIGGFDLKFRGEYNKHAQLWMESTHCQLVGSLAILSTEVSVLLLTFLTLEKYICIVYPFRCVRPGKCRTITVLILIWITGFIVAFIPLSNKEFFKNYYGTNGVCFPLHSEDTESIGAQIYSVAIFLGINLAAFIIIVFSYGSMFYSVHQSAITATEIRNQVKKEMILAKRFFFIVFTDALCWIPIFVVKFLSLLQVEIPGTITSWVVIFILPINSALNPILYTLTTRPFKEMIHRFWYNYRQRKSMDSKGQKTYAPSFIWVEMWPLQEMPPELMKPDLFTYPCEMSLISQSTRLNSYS

By IC50 is commonly meant the concentration that gives 50% inhibition. Regarding `Cc1ccc(-c2noc(-c3ccc(NC(=O)C4CC(=O)N(CCc5ccccc5)C4)cc3)n2)cc1` (stereo not given), the IC50 at Relaxin-3 receptor 1 [1] is more than 10 µM.

Take `Cc1ccc(-c2noc(-c3ccc(NC(=O)C4CC(=O)N(Cc5ccccn5)C4)cc3)n2)cc1` (stereo not given): the IC50 on Relaxin-3 receptor 1 [1] was more than 10 µM.

For `Cc1ccc(-c2noc(-c3ccc(NC(=O)C4CC(=O)N(Cc5cccc(F)c5)C4)cc3)n2)cc1` (stereo not given), on Relaxin-3 receptor 1 [1], the IC50 is more than 10 µM.

By Ki is commonly meant the equilibrium dissociation constant of an inhibitor or competing ligand from its target. Lower therefore signals a stronger hold on the target. In the case of H-RAAPYGVRLSGREFIRAVIFTSR-NH2, the half-maximal inhibitory concentration (IC50) was 0.504 µM at Relaxin-3 receptor 1 [1] and 7.82 µM on Relaxin-3 receptor 1 [2]. The compound also showed an inhibitory constant (Ki) at Relaxin-3 receptor 1 [3] of 0.0111 µM.

Regarding `O=C(Nc1ccc(-c2nc(-c3ccc(Cl)cc3)no2)cc1)C1CC(=O)N(Cc2cccnc2)C1` (stereo not given), at Relaxin-3 receptor 1 [4], the IC50 amounted to 3.04 µM. In test [5], the result was Active.

Consider `Cc1ccc(-c2noc(-c3ccc(NC(=O)C4CC(=O)N(Cc5ccccc5F)C4)cc3)n2)cc1` (stereo not given), for which the half-inhibitory concentration (IC50) at Relaxin-3 receptor 1 [1] was more than 10 µM.

For `Cc1ccc(-c2noc(-c3ccc(NC(=O)C4CC(=O)N(Cc5cccnc5)C4)cc3)n2)cc1` (stereo not given), the IC50 on Relaxin-3 receptor 1 [1] turned out to be 2.12 µM.
